# Assay results taken from patent publication US20220356174A1, “PYRIDIN-2-ONE COMPOUNDS USEFUL AS SMARCA2 ANTAGONISTS” (Epizyme, Inc., priority 2018, published 2022).
# Molecular target: T1, FL-SMARCA2 (full-length human SMARCA2 isoform 1) (Homo sapiens, UniProt P51531)
# T1 construct: FLAG tag (YKDDDDK) (C); made in house; host or cells: Sf21 insect cells (baculovirus, pFastBacI)
# Test: SMARCA2 ATPase activity assay (ADP-Glo, chicken mononucleosome substrate)
# Format: biochemical
# Settings: Table 3a.1; SMARCA2 5 nM, ATP 250 uM, mononucleosome 10 nM
# From the text: Molecular Biology: Full-length human SMARCA2 isoform 1 (P51531) transcript clone was amplified from a cDNA library incorporating an N-terminal HIS tag ([…]) fused directly to Ser2 of SMARCA2 and a C-FLAG tag (YKDDDDK) fused directly to Glu1590 of SMARCA2. The amplified gene was subcloned into pFastBacI (Life Technologies).
# Protein Expression: Recombinant baculovirus were generated and protein over-expression was accomplished by infecting exponentially growing Sf21 insect cell culture at 1.24×10^6 cell/ml with an MOI of 0.1. Infections were carried out for 76 hours, harvested by centrifugation, and stored at −80° C. for purification.
# Expressed full-length SMARCA2 was purified from cell paste by FLAG affinity chromatography followed by anion exchange chromatography. The protein was dialyzed into a storage buffer containing 25 mM HEPES, 300 mM KCl, 10% Glycerol, pH 7.9, 1 mM TCEP and 0.01% Tween-20. The purity of the protein was measured as 74% using micro-capillary based gel electrophoresis.
# T1 sequence (P51531 with tags, fused parts or gaps): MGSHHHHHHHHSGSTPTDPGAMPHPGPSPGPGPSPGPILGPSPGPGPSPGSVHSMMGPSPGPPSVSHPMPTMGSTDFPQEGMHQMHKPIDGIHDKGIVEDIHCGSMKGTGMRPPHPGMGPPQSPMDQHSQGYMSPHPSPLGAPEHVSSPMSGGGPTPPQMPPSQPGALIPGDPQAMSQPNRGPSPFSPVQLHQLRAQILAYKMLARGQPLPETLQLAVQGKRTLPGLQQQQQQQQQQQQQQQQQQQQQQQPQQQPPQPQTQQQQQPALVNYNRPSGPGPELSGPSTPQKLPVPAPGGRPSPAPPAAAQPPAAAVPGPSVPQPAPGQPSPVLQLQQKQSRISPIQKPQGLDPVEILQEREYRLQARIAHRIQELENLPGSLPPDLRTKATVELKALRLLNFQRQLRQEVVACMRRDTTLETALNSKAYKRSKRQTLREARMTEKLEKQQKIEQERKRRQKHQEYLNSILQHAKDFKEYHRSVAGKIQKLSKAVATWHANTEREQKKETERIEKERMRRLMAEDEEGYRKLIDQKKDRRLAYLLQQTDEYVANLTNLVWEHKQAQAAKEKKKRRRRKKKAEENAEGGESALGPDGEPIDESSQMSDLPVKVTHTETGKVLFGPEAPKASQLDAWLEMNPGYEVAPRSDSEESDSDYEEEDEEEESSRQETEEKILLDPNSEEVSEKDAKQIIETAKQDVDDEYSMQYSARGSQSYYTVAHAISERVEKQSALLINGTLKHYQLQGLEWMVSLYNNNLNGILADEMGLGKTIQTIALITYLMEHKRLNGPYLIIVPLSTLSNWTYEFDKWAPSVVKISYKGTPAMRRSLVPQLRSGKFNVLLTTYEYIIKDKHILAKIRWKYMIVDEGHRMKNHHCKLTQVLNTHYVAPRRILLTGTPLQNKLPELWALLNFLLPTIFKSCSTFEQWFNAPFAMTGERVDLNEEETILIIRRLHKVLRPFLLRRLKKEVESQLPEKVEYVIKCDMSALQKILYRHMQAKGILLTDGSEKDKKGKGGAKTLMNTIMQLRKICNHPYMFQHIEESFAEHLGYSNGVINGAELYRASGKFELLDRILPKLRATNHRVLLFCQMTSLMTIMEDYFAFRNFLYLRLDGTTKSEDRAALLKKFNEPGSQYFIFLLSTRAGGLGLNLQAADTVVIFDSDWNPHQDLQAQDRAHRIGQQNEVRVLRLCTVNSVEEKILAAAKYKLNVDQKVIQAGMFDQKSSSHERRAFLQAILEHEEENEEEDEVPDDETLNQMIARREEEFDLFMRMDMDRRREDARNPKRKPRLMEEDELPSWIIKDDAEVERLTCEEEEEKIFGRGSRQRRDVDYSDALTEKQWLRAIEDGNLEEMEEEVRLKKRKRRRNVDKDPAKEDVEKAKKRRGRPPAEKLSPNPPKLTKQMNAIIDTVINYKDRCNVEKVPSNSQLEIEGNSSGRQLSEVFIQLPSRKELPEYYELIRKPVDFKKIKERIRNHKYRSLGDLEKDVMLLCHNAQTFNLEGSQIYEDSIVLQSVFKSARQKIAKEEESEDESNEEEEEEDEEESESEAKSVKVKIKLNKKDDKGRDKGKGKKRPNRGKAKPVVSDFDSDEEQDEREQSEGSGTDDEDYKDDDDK
row,Structure (SMILES),IC50 [µM]
1,CCn1cc(NC(=O)c2cccc(C)n2)ccc1=O [Compound 28a],> 50
2,COc1ccc2nc(C(=O)Nc3cc(F)c(=O)n(CCF)c3)sc2c1 [Compound 62a],44
3,CCn1cc(NC(=O)c2cccc(C(F)(F)F)n2)ccc1=O [Compound 57a],> 50
4,CCn1cc(NC(=O)c2cnc3ncccn23)ccc1=O [Compound 23a],> 50
5,CCN(CC)c1nc2sc(C(=O)Nc3cc(F)c(=O)n(CCF)c3)cc2s1 [Compound 61a],> 50
6,CCn1cc(NC(=O)c2nc3cc(Cl)c(Cl)cc3[nH]2)ccc1=O [Compound 42a],13.2
7,O=C(Nc1cc(F)c(=O)n(CCF)c1)N1CCn2ccnc2C1 [Compound 53a],> 50
8,CCn1cc(NC(=O)c2cnc3ccccn23)ccc1=O [Compound 19a],> 50

# Same assay, conditions: Table 3b.1; SMARCA2 5 nM, ATP 250 uM, mononucleosome 10 nM
row,Structure (SMILES),IC50 [µM]
1,CCn1cc(NC(=O)c2cccc(Cl)c2)ccc1=O [Compound 6b],> 50
2,CCn1cc(NC(=O)[C@@H]2CC[C@H](Cl)C2)ccc1=O [Compound 15b],> 50
3,CCn1cc(NC(=O)c2ccc(Cl)c(F)c2)ccc1=O [Compound 9b],43.7

# Same assay, conditions: Table 3c.1; ATPase assay, enzyme 5 nM, ATP 250 uM, chicken mononucleosome 10 nM, 30 min preincubation
row,Structure (SMILES),IC50 [µM]
1,O=C(Nc1cc(F)c(=O)n(CC(F)F)c1)c1cc(F)c(F)s1 [Compound 109c],0.0625
2,O=C(Nc1cc(-c2cnco2)c(=O)n(CC(F)F)c1)c1sc(C(F)(F)F)cc1Cl [Compound 18c],> 50
3,O=C(Nc1cc(C#CC(F)(F)F)c(=O)n(CC(F)F)c1)c1cc(F)c(Cl)s1 [Compound 26c],5.41
4,O=C(Nc1cc(F)c(=O)n(CC(F)F)c1)c1cc(C#CC2CNC2)c(Cl)s1 [Compound 9c],2.88
5,CNCCn1cc(NC(=O)c2cc(F)c(Cl)s2)cc(F)c1=O [Compound 52c],> 50
6,O=C(Nc1cc(-c2c[nH]cn2)c(=O)n(CC(F)F)c1)c1cc(Cl)c(C(F)(F)F)s1 [Compound 104c],22.4
7,Cn1cnc(-c2cc(NC(=O)c3cc(Cl)c(C(F)(F)F)s3)cn(CC(F)F)c2=O)c1 [Compound 91c],> 50
8,O=C(Nc1cc(F)c(=O)n(CC(F)(F)CO)c1)c1cc(Cl)c(Cl)s1 [Compound 100c],6.81
9,O=C(Nc1cc(C#CCO)c(=O)n(CC(F)F)c1)c1cc(F)c(Cl)s1 [Compound 4c],6.98

# Same assay, conditions: Table 3.1; ATPase assay, enzyme 5 nM, ATP 250 uM, chicken mononucleosome 10 nM, 30 min preincubation
row,Structure (SMILES),IC50 [µM]
1,N#Cc1[nH]c(C(=O)Nc2cc(Cl)c(=O)n(CCF)c2)cc1Cl [Compound 241],0.112
2,CCn1cc(NC(=O)c2cc(Cl)c(Cl)s2)cc(OCCOC)c1=O [Compound 118],> 50
3,O=C(Nc1cc(Cl)c(=O)n(CC(F)(F)F)c1)c1cnc(Cl)s1 [Compound 104],0.192
4,Cn1c(C(=O)Nc2cc(F)c(=O)n(CC(F)(F)F)c2)cnc1Cl [Compound 212],8.52
5,CCn1cc(NC(=O)c2ccn(C)c2Cl)ccc1=O [Compound 115],> 50
6,Cn1cc(NC(=O)c2cnc(-c3ccco3)s2)cc(Cl)c1=O [Compound 12],> 50
7,N#Cc1cc(NC(=O)c2cc(Cl)c(Cl)[nH]2)cn(CC(F)(F)F)c1=O [Compound 211],2.31
8,O=C(Nc1cc(NCC2CCCN2)c(=O)n(CCF)c1)c1cc(Cl)c(Cl)s1 (centres unmarked) [Compound 268],16.7
9,O=C(Nc1cc(F)c(=O)n(CCF)c1)c1cc(Cl)c(CC(F)(F)F)s1 [Compound 319],1.32
10,CNC(=O)c1cc(C(=O)Nc2cc(F)c(=O)n(CCF)c2)sc1Cl [Compound 291],> 50
11,Cn1c(C(=O)Nc2cc(Cl)c(=O)n(CC(F)(F)F)c2)cc(Cl)c1Cl [Compound 135],0.293
12,Cn1cnc(-c2ccc(C(=O)Nc3cc(F)c(=O)n(CCF)c3)s2)c1 [Compound 311],> 50
13,O=C(Nc1cc(F)c(=O)n(CCn2ccnc2)c1)c1cc(Cl)c(Cl)s1 [Compound 274],> 50
14,CCn1cc(NC(=O)c2cc(OC)c(OC)s2)ccc1=O [Compound 171],> 50
15,CC(=O)Nc1ncc(C(=O)Nc2cc(F)c(=O)n(CCF)c2)s1 [Compound 258],> 50
16,CCn1cc(C(=O)Nc2ccc(Br)s2)ccc1=O [Compound 77],> 50
17,CCn1cc(NC(=O)c2cc(Cl)c(Cl)[nH]2)cc(Cl)c1=O [Compound 158],1.85
18,CCn1c(C(=O)Nc2ccc(=O)n(CC)c2)cc(Cl)c1Cl [Compound 42],12.6
19,Cn1c(C(=O)Nc2ccc(=O)n(C3CC3)c2)cc(Cl)c1Cl [Compound 41],> 50
20,O=C(Nc1ccc(=O)n(-c2ccccc2)c1)c1ccc(Br)s1 [Compound 50],> 50
21,CCn1cc(NC(=O)c2cc(Cl)n(C)n2)ccc1=O [Compound 100],> 50
22,CCn1cc(NC(=O)c2cc(Br)cs2)ccc1=O [Compound 45],43.1
23,CCn1cc(NC(=O)c2cnc(Cl)[nH]2)ccc1=O [Compound 99],> 50
24,CCn1cc(NC(=O)c2snc(Cl)c2Cl)ccc1=O [Compound 34],28.5
25,CCn1cc(NC(=O)c2ncc(Br)s2)ccc1=O [Compound 49],> 50
26,CCn1cc(NC(=O)c2ccc(I)s2)ccc1=O [Compound 46],11.1

# Same assay, conditions: Table 3d.1; ATPase assay, enzyme 5 nM, ATP 250 uM, chicken mononucleosome 10 nM, 30 min preincubation; read-out: FL-SMARCA2 IC>50
row,Structure (SMILES),IC50 [µM]
1,CCn1cc(NC(=O)C(=O)c2ccc(Cl)s2)ccc1=O [Compound 1d],> 50

# Molecular target: FL-SMARCA4 (Homo sapiens, UniProt P51532)
# Test: SMARCA4 ATPase activity assay (ADP-Glo, chicken mononucleosome substrate)
# Settings: FL-SMARCA4 IC50
# Chain of FL-SMARCA4 (P51532 whole entry): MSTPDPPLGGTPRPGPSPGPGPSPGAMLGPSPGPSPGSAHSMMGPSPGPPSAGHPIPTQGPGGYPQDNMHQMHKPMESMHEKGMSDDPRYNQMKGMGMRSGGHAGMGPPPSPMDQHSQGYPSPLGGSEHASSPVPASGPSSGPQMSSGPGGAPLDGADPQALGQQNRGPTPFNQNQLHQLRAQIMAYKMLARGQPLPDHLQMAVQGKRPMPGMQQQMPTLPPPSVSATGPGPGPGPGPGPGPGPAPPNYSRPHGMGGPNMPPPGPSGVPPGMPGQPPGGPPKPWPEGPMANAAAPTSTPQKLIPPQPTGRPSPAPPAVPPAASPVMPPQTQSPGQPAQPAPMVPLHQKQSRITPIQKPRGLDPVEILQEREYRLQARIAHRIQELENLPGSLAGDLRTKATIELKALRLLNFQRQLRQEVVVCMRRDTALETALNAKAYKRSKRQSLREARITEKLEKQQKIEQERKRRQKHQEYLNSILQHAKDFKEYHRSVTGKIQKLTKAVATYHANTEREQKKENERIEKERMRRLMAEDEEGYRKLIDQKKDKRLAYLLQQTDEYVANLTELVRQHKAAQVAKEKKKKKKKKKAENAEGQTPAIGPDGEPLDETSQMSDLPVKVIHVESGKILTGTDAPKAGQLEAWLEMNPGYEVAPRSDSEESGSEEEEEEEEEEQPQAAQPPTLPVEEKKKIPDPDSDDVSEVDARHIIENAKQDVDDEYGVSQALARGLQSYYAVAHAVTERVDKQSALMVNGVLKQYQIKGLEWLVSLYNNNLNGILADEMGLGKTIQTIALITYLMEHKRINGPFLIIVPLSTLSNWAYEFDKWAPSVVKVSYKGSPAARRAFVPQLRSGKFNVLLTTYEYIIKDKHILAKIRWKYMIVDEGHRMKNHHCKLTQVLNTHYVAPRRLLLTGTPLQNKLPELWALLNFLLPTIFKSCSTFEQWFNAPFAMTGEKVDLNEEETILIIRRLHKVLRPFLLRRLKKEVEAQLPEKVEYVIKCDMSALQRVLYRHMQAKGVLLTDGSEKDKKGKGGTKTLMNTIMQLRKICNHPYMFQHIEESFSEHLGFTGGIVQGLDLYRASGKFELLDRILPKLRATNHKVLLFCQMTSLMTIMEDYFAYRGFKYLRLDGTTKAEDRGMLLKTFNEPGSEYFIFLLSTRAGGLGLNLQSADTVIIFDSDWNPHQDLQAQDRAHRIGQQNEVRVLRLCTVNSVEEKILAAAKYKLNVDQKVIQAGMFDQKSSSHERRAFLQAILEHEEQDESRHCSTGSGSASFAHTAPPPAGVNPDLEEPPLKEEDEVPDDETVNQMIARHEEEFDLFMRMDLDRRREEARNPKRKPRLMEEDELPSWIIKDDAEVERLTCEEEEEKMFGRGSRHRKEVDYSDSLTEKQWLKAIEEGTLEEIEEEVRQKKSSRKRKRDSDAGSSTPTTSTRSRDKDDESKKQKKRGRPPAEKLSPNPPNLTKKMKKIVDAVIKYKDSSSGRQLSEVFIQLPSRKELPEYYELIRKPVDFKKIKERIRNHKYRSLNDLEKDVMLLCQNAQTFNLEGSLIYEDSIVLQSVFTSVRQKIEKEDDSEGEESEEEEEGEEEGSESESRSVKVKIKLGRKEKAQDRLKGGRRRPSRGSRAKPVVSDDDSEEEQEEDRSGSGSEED
row,Structure (SMILES),IC50 [µM]
1,CCn1cc(NC(=O)C(=O)c2ccc(Cl)s2)ccc1=O [Compound 1d],> 50
2,N[C@H]1CC[C@H](C#Cc2cc(C(=O)Nc3cc(F)c(=O)n(CC(F)F)c3)sc2Cl)CC1 [Compound 66d],1.29

# Same assay, conditions: FL-SMARCA4 IC50, Table 3a.2; SMARCA4 5 nM, ATP 250 uM, mononucleosome 10 nM
row,Structure (SMILES),IC50 [µM]
1,CCn1cc(NC(=O)c2cccc(C)n2)ccc1=O [Compound 28a],> 50
2,COc1ccc2nc(C(=O)Nc3cc(F)c(=O)n(CCF)c3)sc2c1 [Compound 62a],48.2
3,CCn1cc(NC(=O)c2cccc(C(F)(F)F)n2)ccc1=O [Compound 57a],> 50
4,CCn1cc(NC(=O)c2cnc3ncccn23)ccc1=O [Compound 23a],> 50
5,CCN(CC)c1nc2sc(C(=O)Nc3cc(F)c(=O)n(CCF)c3)cc2s1 [Compound 61a],> 50
6,CCn1cc(NC(=O)c2nc3cc(Cl)c(Cl)cc3[nH]2)ccc1=O [Compound 42a],> 50
7,O=C(Nc1cc(F)c(=O)n(CCF)c1)N1CCn2ccnc2C1 [Compound 53a],> 50

# Same assay, conditions: FL-SMARCA4 IC50, Table 3b.2; SMARCA4 5 nM, ATP 250 uM, mononucleosome 10 nM
row,Structure (SMILES),IC50 [µM]
1,CCn1cc(NC(=O)c2cccc(Cl)c2)ccc1=O [Compound 6b],> 50
2,CCn1cc(NC(=O)[C@@H]2CC[C@H](Cl)C2)ccc1=O [Compound 15b],> 50
3,CCn1cc(NC(=O)c2ccc(Cl)c(F)c2)ccc1=O [Compound 9b],> 50

# Same assay, conditions: FL-SMARCA4 IC50, Table 3.2; ATPase assay, enzyme 5 nM, ATP 250 uM, chicken mononucleosome 10 nM, 30 min preincubation
row,Structure (SMILES),IC50 [µM]
1,N#Cc1[nH]c(C(=O)Nc2cc(Cl)c(=O)n(CCF)c2)cc1Cl [Compound 241],0.653
2,CCn1cc(NC(=O)c2cc(Cl)c(Cl)s2)cc(OCCOC)c1=O [Compound 118],> 50
3,O=C(Nc1cc(Cl)c(=O)n(CC(F)(F)F)c1)c1cnc(Cl)s1 [Compound 104],0.229
4,Cn1c(C(=O)Nc2cc(F)c(=O)n(CC(F)(F)F)c2)cnc1Cl [Compound 212],> 50
5,CCn1cc(NC(=O)c2ccn(C)c2Cl)ccc1=O [Compound 115],16.7
6,Cn1cc(NC(=O)c2cnc(-c3ccco3)s2)cc(Cl)c1=O [Compound 12],> 50
7,CCn1cc(NC(=O)c2csnn2)ccc1=O [Compound 29],> 50
8,N#Cc1cc(NC(=O)c2cc(Cl)c(Cl)[nH]2)cn(CC(F)(F)F)c1=O [Compound 211],27.5
9,O=C(Nc1cc(NCC2CCCN2)c(=O)n(CCF)c1)c1cc(Cl)c(Cl)s1 (centres unmarked) [Compound 268],41.8
10,O=C(Nc1cc(F)c(=O)n(CCF)c1)c1cc(Cl)c(CC(F)(F)F)s1 [Compound 319],16.6
11,CNC(=O)c1cc(C(=O)Nc2cc(F)c(=O)n(CCF)c2)sc1Cl [Compound 291],> 50
12,Cn1c(C(=O)Nc2cc(Cl)c(=O)n(CC(F)(F)F)c2)cc(Cl)c1Cl [Compound 135],2
13,Cn1cnc(-c2ccc(C(=O)Nc3cc(F)c(=O)n(CCF)c3)s2)c1 [Compound 311],> 50
14,O=C(Nc1cc(F)c(=O)n(CCn2ccnc2)c1)c1cc(Cl)c(Cl)s1 [Compound 274],> 50
15,CCn1cc(NC(=O)c2cc(OC)c(OC)s2)ccc1=O [Compound 171],> 50
16,CC(=O)Nc1ncc(C(=O)Nc2cc(F)c(=O)n(CCF)c2)s1 [Compound 258],> 50
17,CCn1cc(C(=O)Nc2ccc(Br)s2)ccc1=O [Compound 77],> 50
18,CCn1cc(NC(=O)c2cc(Cl)c(Cl)[nH]2)cc(Cl)c1=O [Compound 158],13.7
19,CCn1cc(NC(=O)c2csc(C(F)(F)F)n2)ccc1=O [Compound 25],> 50
20,CCn1cc(NC(=O)c2cc(C)n[nH]2)ccc1=O [Compound 27],> 50
21,CCn1cc(NC(=O)c2nc(Br)cs2)ccc1=O [Compound 30],> 50
22,CCn1cc(NC(=O)c2cn(C)nc2C(F)(F)F)ccc1=O [Compound 31],> 50
23,CCn1cc(NC(=O)c2cn(C)nc2C(F)F)ccc1=O [Compound 28],> 50
24,CCn1cc(NC(=O)c2cc(C3CC3)on2)ccc1=O [Compound 24],> 50
25,CCn1cc(NC(=O)c2cc(C)oc2C)ccc1=O [Compound 23],> 50
26,N#Cc1cc(C(=O)Nc2cc(C#N)c(=O)n(CCF)c2)sc1Cl [Compound 321],0.635

# Same assay, conditions: FL-SMARCA4 IC>50, Table 3c.2; ATPase assay, enzyme 5 nM, ATP 250 uM, chicken mononucleosome 10 nM, 30 min preincubation
row,Structure (SMILES),IC50 [µM]
1,O=C(Nc1cc(F)c(=O)n(CC(F)F)c1)c1cc(F)c(F)s1 [Compound 109c],0.159
2,O=C(Nc1cc(-c2cnco2)c(=O)n(CC(F)F)c1)c1sc(C(F)(F)F)cc1Cl [Compound 18c],> 50
3,O=C(Nc1cc(C#CC(F)(F)F)c(=O)n(CC(F)F)c1)c1cc(F)c(Cl)s1 [Compound 26c],6.27
4,O=C(Nc1cc(F)c(=O)n(CC(F)F)c1)c1cc(C#CC2CNC2)c(Cl)s1 [Compound 9c],7.82
5,CNCCn1cc(NC(=O)c2cc(F)c(Cl)s2)cc(F)c1=O [Compound 52c],> 50
6,O=C(Nc1cc(-c2c[nH]cn2)c(=O)n(CC(F)F)c1)c1cc(Cl)c(C(F)(F)F)s1 [Compound 104c],29.6
7,Cn1cnc(-c2cc(NC(=O)c3cc(Cl)c(C(F)(F)F)s3)cn(CC(F)F)c2=O)c1 [Compound 91c],> 50
8,O=C(Nc1cc(F)c(=O)n(CC(F)(F)CO)c1)c1cc(Cl)c(Cl)s1 [Compound 100c],27.6
9,O=C(Nc1cc(C#CCO)c(=O)n(CC(F)F)c1)c1cc(F)c(Cl)s1 [Compound 4c],18.1
10,O=C(O)c1cccc(C#Cc2cc(C(=O)Nc3cc(F)c(=O)n(CC(F)F)c3)ccn2)c1 [Compound 132c],11.3
